Source: paper PMC10388311, “Innovative Strategy toward Mutant CFTR Rescue in Cystic Fibrosis: Design and Synthesis of Thiadiazole Inhibitors of the E3 Ligase RNF5” (Journal of Medicinal Chemistry, 2023)
In brackets after ≈: the same amount, converted by molar mass. Like-named read-outs stand apart in the source and are kept apart here.

Columns and labels:
[1] = target: T1, recombinant RNF5 (1–117) protein (Homo sapiens, UniProt Q99942); test: WaterLOGSY and STD NMR binding experiments; details: compound 50 μM, 3 μM RNF5 (1–117)
T1 construct: human RNF5 protein (aa 1–117) truncated to exclude the transmembrane domains; GST (followed by TEV protease site) (N, cleaved yes); host or cells: Escherichia coli BL21(DE3)
T1 sequence (Q99942 1-117): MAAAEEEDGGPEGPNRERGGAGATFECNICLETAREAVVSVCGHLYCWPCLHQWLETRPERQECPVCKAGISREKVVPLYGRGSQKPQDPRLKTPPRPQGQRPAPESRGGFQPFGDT
Source text: The bindings of compounds 12, 40, and 42 were initially evaluated by MicroScale Thermophoresis (MST) using a purified recombinant truncated form of RNF5 (aa 1–117), lacking the C-terminal transmembrane domains. The protein was covalently labeled with a red dye (NHS) on the primary amines (lysine residues). […] NMR experiments on the recombinant RNF5 form were further performed to test the direct binding of the three compounds to the protein with a more sensitive, label-free, independent approach. Analogs 12, 40, and 42 were tested at 50 μM in the absence and in the presence of 3 μM RNF5 (1–117) protein. […] Indeed, for all three compounds, the NMR signals of their methyls are present in the STD spectra, and in the WaterLOGSY spectra, their signals change from negative to positive in the presence of the protein, indisputably highlighting the formation of compound–protein binding events. […] It has to be noted that NMR is a very sensitive technique that allows detecting also compounds weakly binding to their target protein independent of the possible downstream biological effects. […]
All the NMR experiments were recorded at 298 K using a 5 mm CryoProbe QCI ^1H/^19F–^13C/^15N–D quadruple resonance, a shielded z-gradient coil, and an automatic sample changer SampleJet NMR system with temperature control. […] For all samples, a 1D ^1H NMR experiment was recorded, the water suppression was obtained using the standard NOESY (nuclear Overhauser effect spectroscopy) preset Bruker pulse sequence, with 64k data points, a spectral width (sw) of 30 ppm, 64 scans, acquisition time (aq) of 1.835 s, a relaxation delay (d1) of 4 s, and a mixing time of 10 ms. […] WaterLOGSY experiments were recorded with the same parameters used in solubility assays, but with a higher number of scans (512); STD experiments were recorded with 128 scans, with two on (0.7 and 1 ppm) and one off (−50 ppm) resonance spectra, a Gaussian-shaped train pulse of 50 ms each was employed, with a total saturation time of the protein envelope of 5, 3, 2, 1.5, 1, or 0.5 s. […]

[2] = Solubility and aggregation in PBS buffer by NMR (SPAM filter, 1H 1D and WaterLOGSY); assay type: physicochemical; details: for solubility and aggregation in PBS (in words): NMR; for solubility at 20 µM / solubility at 50 µM / solubility at 100 µM / aggregation in PBS buffer by NMR / solubility: PBS pH 7.5, 1 μM ZnCl2, 1 mM DTT, 10% D2O, 1% DMSO-d6; for solubility at 100 µM: theoretical concentration 100 μM; for aggregation in PBS buffer by NMR: WaterLOGSY
Source text: Under these circumstances, it was decided to explore the solubility of all the synthetized compounds, regardless of their biological activities, to find a suitable candidate for the validation of our working hypothesis, i.e., that the compounds exert their activities by directly binding to RNF5. For that, we first calculated the predicted octanol/water partition coefficient (log Po/w) and the predicted aqueous solubility (log S) of all the analogues by QikProp (Schrödinger Release 2022-1: QikProp, Schrödinger, LLC, New York, NY, 2021, Table S1). […] To shrink down the number of compounds for solubility experiments, just the ones that had −2.0 < log Po/w < 6 and −6.5 < log S <0.5 values were selected. Among them, the PBS solubility was determined for five representative analogues: (i) 12 and 29 bearing different substituents on the benzyl group A; (ii) 34 and 40 showing the replacement of rings B and C with pyridine-4-yl moieties; (iii) 42 in which the N-phenylbenzamidine portion was replaced with a pyridine-2-yl moiety (Table 1).
All the NMR experiments were recorded at 298 K using a 5 mm CryoProbe QCI ^1H/^19F–^13C/^15N–D quadruple resonance, a shielded z-gradient coil, and an automatic sample changer SampleJet NMR system with temperature control. The solubility of the compounds were evaluated by ^1H 1D experiments and aggregation by WaterLOGSY, testing the compounds in buffer PBS pH 7,5, 1 μM ZnCl2, 1 mM DTT, 10% D2O (for the lock signal), and 1% DMSO-d6 at the theoretical concentrations of 20, 50, and 100 μM in the presence of 200 μM 4-trifluoromethyl benzoic acid (internal reference). For all samples, a 1D ^1H NMR experiment was recorded, the water suppression was obtained using the standard NOESY (nuclear Overhauser effect spectroscopy) preset Bruker pulse sequence, with 64k data points, a spectral width (sw) of 30 ppm, 64 scans, acquisition time (aq) of 1.835 s, a relaxation delay (d1) of 4 s, and a mixing time of 10 ms. […] The data were multiplied by an exponential window function with 1 Hz line broadening prior to Fourier transformation. For NMR binding experiments, the compounds were tested at 50 μM in buffer PBS pH 7.5, 1 μM ZnCl2, 1 mM DTT, 10% D2O (for the lock signal), and 1% DMSO-d6 in the absence and in the presence of 3 μM RNF5. WaterLOGSY experiments were recorded with the same parameters used in solubility assays, but with a higher number of scans (512); STD experiments were recorded with 128 scans, with two on (0.7 and 1 ppm) and one off (−50 ppm) resonance spectra, a Gaussian-shaped train pulse of 50 ms each was employed, with a total saturation time of the protein envelope of 5, 3, 2, 1.5, 1, or 0.5 s. A T1ρ filter of 2 ms was employed in STD experiments to eliminate the background signals from the protein. The STD spectrum was obtained by subtraction of the on-resonance spectrum from the off-resonance spectrum. Subtraction was performed by phase cycling to minimize artifacts arising from magnet and temperature instabilities.

[3] = PBS buffer, aqueous buffer, kinetic from dmso stock, theoretical concentration 20 μM
[4] = PBS buffer, aqueous buffer, kinetic from dmso stock, theoretical concentration 50 μM
[5] = PBS buffer, aqueous buffer, kinetic from dmso stock
[6] = PBS buffer, aqueous buffer, kinetic from dmso stock, theoretical concentration 20 μM, read-out: solubility in PBS buffer by NMR, 20 μM
[7] = theoretical concentration 50 μM

SMILES	binding to RNF5 by WaterLOGSY and STD NMR [1]	solubility and aggregation in PBS (in words) ([2]; PBS buffer)	solubility at 20 µM [2, 3]	solubility at 50 µM [2, 4]	solubility at 100 µM [2, 5]	aggregation in PBS buffer by NMR [2]	solubility [2, 6]	solubility at 50 µM [2, 7]	solubility at 100 µM [2]	solubility ([2]; PBS buffer, aqueous buffer, kinetic from dmso stock, theoretical concentration 50 μM, read-out: solubility in PBS buffer by NMR, 50 μM)
Cc1ns/c(=N\c2ccccn2)n1Cc1ccccc1 [Compound 42, (Z)-4-Benzyl-3-methyl-N-(pyridin-2-yl)-1,2,4-thiadiazol-5(4H)-imine]	bind the recombinant RNF5 protein	no aggregation and solubility suitable for in vitro/biophysical binding experiments	20 µM (≈ 5.65 µg/mL)	40 µM (≈ 11.3 µg/mL)	5 µM (≈ 1.41 µg/mL)	no	–	–	–	–
COc1cccc(Cn2c(C)ns/c2=N\C(=N\c2ccccc2)c2ccccc2)c1 [Compound 16, (E)-N-((Z)-4-(3-Methoxybenzyl)-3-methyl-1,2,4-thiadiazol-5(4H)-ylidene)-N′-phenylbenzimidamide]	–	–	–	–	–	no	< 5 µM	<5 µM	<5 µM	–
Cc1ns/c(=N\C(=N\c2ccncc2)c2ccccc2)n1Cc1ccccc1 [Compound 40, (E)-N-((Z)-4-Benzyl-3-methyl-1,2,4-thiadiazol-5(4H)-ylidene)-N′-(pyridin-4-yl)benzimidamide]	bind the recombinant RNF5 protein	no aggregation and solubility suitable for in vitro/biophysical binding experiments	20 µM (≈ 7.71 µg/mL)	–	–	no	–	–	–	30 µM (≈ 11.6 µg/mL)
Cc1ns/c(=N\C(=N\c2ccccc2)c2ccccc2)n1Cc1ccc(C(=O)O)cc1 [Compound 12, 4-(((Z)-3-Methyl-5-(((E)-phenyl(phenylimino)methyl)imino)-1,2,4-thiadiazol-4(5H)-yl)methyl)benzoic Acid]	bind the recombinant RNF5 protein	no aggregation and solubility suitable for in vitro/biophysical binding experiments	20 µM (≈ 8.57 µg/mL)	50 µM (≈ 21.4 µg/mL)	100 µM (≈ 42.9 µg/mL)	no	–	–	–	–
Cc1ns/c(=N\C(=N\c2ccccc2)c2ccccc2)n1Cc1ccccc1 [inh-2, reference compound]	–	–	–	–	–	no	< 5 µM	<5 µM	<5 µM	–
